From patent US20100168105A1, “Spirocyclopropyl Piperidine Derivatives” (priority 2007, published 2010)

Key:
[1] = target: human histamine H3 receptors (full-length H3, isoform 445) (Homo sapiens, UniProt Q9Y5N1); settings: hH3 binding IC50 (nM), inhibition of 1.4 nM [3H]-N-α-methylhistamine binding to CHO-K1 membranes expressing human H3, SPA, 1.5 hr;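 further: scintillation counts read after the 1.5 hr incubation at room temperature with shaking, Imetit serving as reference control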
Protocol: Histamine H3 SPA with the Agonist Radioligand [^3H]—N-α-methylhistamine
Reproducibility of the assay is such that IC50 curves can be generated in singlicate. Single poke (SP) testing was done in triplicate.
Membranes, prepared from CHO-K1 cells stably expressing the human histamine H3 receptor, were obtained from ACS.
Tested formula I compounds were provided as solubilized samples in neat DMSO. Serial dilutions were performed in DMSO.
Plates were read on a Perkin Elmer TopCount. CPM data were used to analyze unless DPM data generated by a quench curve were required.
• 1. 1 mg/ml BSA was added to assay buffer (AB) on day of assay. • 2. […] Buffer volume was split between beads and membranes to allow for polytroning of membranes prior to addition to beads. • a. […] Waited a minimum of 15 minutes prior to adding membranes (See b. below.). • b. […] The homogenized membrane mixture was combined with the beads and a minimum of 30 minutes was waited prior to dispensing to plate. • 3. Formula I compounds: For Single Poke, 2 μl 1 mM of a compound in accordance with formula I was dispensed to Optiplates (triplicate plates) for final concentration of 10 μM. […] Imetit (see below) was used as a control. • 4. […] 5 μl samples were calculated in quadruplicate on the β counter. […] (For IC50s, use final concentration on calculation tab of ABase template.)
• 1. […] 2 μl of the formula I compound dilution was mixed and then transferred into assay plates. DMSO was removed and 2 μl of 100 μM Imetit was added to the wells. • 3. 178 μl bead/membrane mixture was dispensed into the assay plate. • 4. 20 μl [^3H]-NAMH was added with Rapid Plate. The assay plate was sealed and incubated for 1.5 hr on RT shaker at speed ˜6.5. • 5. The assay plate was subsequently centrifuged at 1000 rpm for 10 minutes. • 6. The count was performed on TopCount using one of the 3H SPA H3 Quench programs.
The DPM data was analyzed when tSIS was less than that associated with 70% of full scale on the quench curve (tSIS<25%). Otherwise, CPM data was used.

[2] = target: T1, human Histamine H3 receptor (hH3R) (Homo sapiens, UniProt Q9Y5N1); experiment: Guanosine 5'-O-(3-[35S]thio)triphosphate [GTPγS] Binding Assay; assay type: biochemical; settings: antagonist activity; membranes from CHO cells expressing hH3R, (R)-α-methyl histamine 30 nM, [35S]GTPγS 0.2 nM, 90 minutes
T1 construct: expressed in transfected cells; host or cells: CHO cells (membranes)
T1 sequence (Q9Y5N1 whole entry): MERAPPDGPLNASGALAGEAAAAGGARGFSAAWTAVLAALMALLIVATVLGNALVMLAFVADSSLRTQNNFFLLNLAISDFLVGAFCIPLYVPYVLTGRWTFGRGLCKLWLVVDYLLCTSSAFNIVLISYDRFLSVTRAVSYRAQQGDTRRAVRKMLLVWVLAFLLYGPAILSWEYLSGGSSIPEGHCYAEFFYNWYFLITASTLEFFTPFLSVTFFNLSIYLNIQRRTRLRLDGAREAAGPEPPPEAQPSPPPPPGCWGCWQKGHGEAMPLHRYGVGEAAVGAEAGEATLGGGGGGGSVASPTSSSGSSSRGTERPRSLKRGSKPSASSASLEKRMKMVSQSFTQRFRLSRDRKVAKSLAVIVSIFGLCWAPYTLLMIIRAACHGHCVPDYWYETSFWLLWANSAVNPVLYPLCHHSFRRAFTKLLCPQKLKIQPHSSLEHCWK
Protocol: Guanosine 5′-O-(3-[^35]thio)triphosphate [GTPγS] Binding Assay
The GTPγS binding assay can be used to investigate antagonist properties of compounds in CHO cells (Chinese Hamster Ovary) transfected with human Histamine H3 receptor (hH3R). […] To determine antagonist activity, (R)-α-methyl histamine (30 nM) is added in 96 well SPA plate with [^35S]GTPγS (0.2 nM) and various concentration of H3R antagonists. The GTPγS binding assay is started with addition of the mixture membrane/saponine/GDP and incubated for 90 minutes at room temperature. The amount of bound [^35S]GTPγS is determined by using the MicroBeta Trilux counter (PerkinElmer). The percentage of [^35S]GTPγS bound in each sample is calculated as a percentage of that bound control sample incubated in absence of H3 antagonist. Duplicate determinations are obtained for each concentration, and the data are analyzed using ExcelFit4 to obtain the IC50.

Sequence of human histamine H3 receptors (full-length H3, isoform 445) (Q9Y5N1 whole entry, canonical isoform): as the sequence (Q9Y5N1 whole entry) above

| SMILES | IC50 [1] [nM] | IC50 [2] [nM] |
| --- | --- | --- |
| COc1ccc(N2CCC3(CC2)CC3C(=O)N2CCN(C3CCC3)CC2)cc1 (stereo not drawn) [Example 39, (4-Cyclobutyl-piperazin-1-yl)-[6-(4-methoxy-phenyl)-6-aza-spiro[2.5]oct-1-yl]-methanone] | 361 |  |
| O=C(C1CC12CCN(C1CCC1)CC2)N1CCN(C2CCOCC2)CC1 (stereo not drawn) [Example 22, (6-Cyclobutyl-6-aza-spiro[2.5]oct-1-yl)-[4-(tetrahydro-pyran-4-yl)-piperazin-1-yl]-methanone] | 209 | 67 |
| O=C(C1CC12CCN(C1CCOCC1)CC2)N1CCN(C2CCC2)CC1 (stereo not drawn) [Example 8, (4-Cyclobutylpiperazin-1-yl)(6-(tetrahydro-2H-pyran-4-yl)-6-azaspiro[2.5]octan-1-yl)methanone] | 4.1 | 3.66 |
| O=C(C1CC12CCN(C1CCOC1)CC2)N1CCN(C2CCC2)CC1 (stereo not drawn) [Example 33, (4-Cyclobutyl-piperazin-1-yl)-[6-(tetrahydro-furan-3-yl)-6-aza-spiro[2.5]oct-1-yl]-methanone] | 35.1 | 5.5 |
| O=C(C1CC12CCN(CCc1ccccc1)CC2)N1CCN(C2CCCCC2)CC1 (single isomer, unassigned) [Example 17, (4-Cyclohexyl-piperazin-1-yl)-(6-phenethyl-6-aza-spiro[2.5]oct-1-yl)-methanone] | 27.4 | 16.4 |
| Cc1ccc(N2CCC3(CC2)CC3C(=O)N2CCN(C3CCC3)CC2)cc1 (stereo not drawn) [Example 45, (4-Cyclobutyl-piperazin-1-yl)-(6-p-tolyl-6-aza-spiro[2.5]oct-1-yl)-methanone] | 791 |  |
| CN1CCN(C(=O)C2CC23CCN(C/C=C/c2ccccc2)CC3)CC1 (stereo not drawn) [Example 4, (4-Methyl-piperazin-1-yl)-[6-((E)-3-phenyl-allyl)-6-aza-spiro[2.5]oct-1-yl]-methanone] | 800 |  |
| CC(C)(C)OC(=O)CN1CCC2(CC1)CC2C(=O)N1CCN(C2CCC2)CC1 (stereo not drawn) [Example 36, [1-(4-Cyclobutyl-piperazine-1-carbonyl)-6-aza-spiro[2.5]oct-6-yl]-acetic acid tert-butyl ester] | 182 |  |
| O=C(C1CC12CCN(CCN1CCOCC1)CC2)N1CCN(C2CCC2)CC1 (stereo not drawn) [Example 34, (4-Cyclobutyl-piperazin-1-yl)-[6-(2-morpholin-4-yl-ethyl)-6-aza-spiro[2.5]oct-1-yl]-methanone] | 24.4 | 13.5 |
| O=C(C1CC12CCN(C1CCOCC1)CC2)N1CCN(C2CCCC2)CC1 (stereo not drawn) [Example 12, (4-cyclopentylpiperazin-1-yl)(6-(tetrahydro-2H-pyran-4-yl)-6-azaspiro[2.5]octan-1-yl)methanone] | 4.43 | 8.8 |
| CN1CCN(C(=O)C2CC23CCN(CCc2ccccc2)CC3)CC1 (stereo not drawn) [Example 5, (4-Methyl-piperazin-1-yl)-(6-phenethyl-6-aza-spiro[2.5]oct-1-yl)-methanone] | 640 |  |
| O=C(C1CC12CCN(C1CCOCC1)CC2)N1CCN(C2CCCCC2)CC1 (stereo not drawn) [Example 1, (4-Cyclohexyl-piperazin-1-yl)-[6-(tetrahydro-pyran-4-yl)-6-aza-spiro[2.5]oct-1-yl]-methanone] | 33.6 | 13 |
| CN1CCC(N2CCC3(CC2)CC3C(=O)N2CCN(C)CC2)CC1 (stereo not drawn) [Example 6, (4-Methyl-piperazin-1-yl)-[6-(1-methyl-piperidin-4-yl)-6-aza-spiro[2.5]oct-1-yl]-methanone] | 1300 |  |
| CC(C)N1CCN(C(=O)C2CC23CCN(C2CCOCC2)CC3)CC1 (stereo not drawn) [Example 10, (4-Isopropylpiperazin-1-yl)(6-(tetrahydro-2H-pyran-4-yl)-6-azaspiro[2.5]octan-1-yl)methanone] | 9.02 | 3.25 |
| O=C(C1CC12CCN(c1ccccn1)CC2)N1CCN(C2CCC2)CC1 (stereo not drawn) [Example 44, (4-Cyclobutyl-piperazin-1-yl)-(6-pyridin-2-yl-6-aza-spiro[2.5]oct-1-yl)-methanone] | 736 |  |
| O=C(C1CC12CCN(C1CCCCC1)CC2)N1CCN(C2CCCCC2)CC1 (stereo not drawn) [Example 19, (6-Cyclohexyl-6-aza-spiro[2.5]oct-1-yl)-(4-cyclohexyl-piperazin-1-yl)-methanone] | 56.5 | 10.1 |
| O=C(C1CC12CCN(C1CCOCC1)CC2)N1CCN(c2ccccn2)CC1 (stereo not drawn) [Example 13, (4-Pyridin-2-yl-piperazin-1-yl)-[6-(tetrahydro-pyran-4-yl)-6-aza-spiro[2.5]oct-1-yl]-methanone] | 573 |  |
| O=C(C1CC12CCN(CCOCc1ccccc1)CC2)N1CCN(C2CCCCC2)CC1 (stereo not drawn) [Example 25, [6-(2-Benzyloxy-ethyl)-6-aza-spiro[2.5]oct-1-yl]-(4-cyclohexyl-piperazin-1-yl)-methanone] | 419 |  |

| SMILES | IC50 [1] [nM] | IC50 [2] [nM] |
| --- | --- | --- |
| CC(C)N1CCC2(CC1)CC2C(=O)N1CCN(C2CCCCC2)CC1 (stereo not drawn) [Example 21, (4-Cyclohexyl-piperazin-1-yl)-(6-isopropyl-6-aza-spiro[2.5]oct-1-yl)-methanone] | 141 | 19.3 |
| O=C(C1CC12CCN(Cc1ccccc1)CC2)N1CCN(C2CCCCC2)CC1 (stereo not drawn) [Example 23, (6-Benzyl-6-aza-spiro[2.5]oct-1-yl)-(4-cyclohexyl-piperazin-1-yl)-methanone] | 306 |  |
| Cc1cnccc1N1CCN(C(=O)C2CC23CCN(C2CCOCC2)CC3)CC1 (stereo not drawn) [Example 50, (4-(3-methylpyridin-4-yl)piperazin-1-yl)(6-(tetrahydro-2H-pyran-4-yl)-6-azaspiro[2.5]octan-1-yl)methanone] |  | 115 |
| O=C(C1CC12CCN(C1CCOCC1)CC2)N1CCN(CC2CCCCC2)CC1 (stereo not drawn) [Example 2, (4-Cyclohexylmethyl-piperazin-1-yl)-[6-(tetrahydro-pyran-4-yl)-6-aza-spiro[2.5]oct-1-yl]-methanone] | 390 |  |
| COC(=O)c1ccc(N2CCC3(CC2)CC3C(=O)N2CCN(C3CCC3)CC2)cc1 (stereo not drawn) [Example 40, 4-[1-(4-Cyclobutyl-piperazine-1-carbonyl)-6-aza-spiro[2.5]oct-6-yl]-benzoic acid methyl ester] | 470 |  |
| CCC(CC)CN1CCC2(CC1)CC2C(=O)N1CCN(C)CC1 (stereo not drawn) [Example 3, [6-(2-Ethyl-butyl)-6-aza-spiro[2.5]oct-1-yl]-(4-methyl-piperazin-1-yl)-methanone] | 1000 |  |
| COCCN1CCC2(CC1)CC2C(=O)N1CCN(C2CCCCC2)CC1 (stereo not drawn) [Example 43, (4-Cyclohexyl-piperazin-1-yl)-[6-(2-methoxy-ethyl)-6-aza-spiro[2.5]oct-1-yl]-methanone] | 615 |  |
| COc1ccc(N2CCN(C(=O)C3CC34CCN(C3CCOCC3)CC4)CC2)cc1 (stereo not drawn) [Example 15, [4-(4-Methoxy-phenyl)-piperazin-1-yl]-[6-(tetrahydro-pyran-4-yl)-6-aza-spiro[2.5]oct-1-yl]-methanone] | 322 |  |
| O=C(C1CC12CCN(c1ccc(C(F)(F)F)cn1)CC2)N1CCN(C2CCCCC2)CC1 (stereo not drawn) [Example 46, (4-Cyclohexyl-piperazin-1-yl)-[6-(5-trifluoromethyl-pyridin-2-yl)-6-aza-spiro[2.5]oct-1-yl]-methanone] | 10000 |  |
| O=C(C1CC12CCN(C1CCOCC1)CC2)N1CCN(c2cccnc2)CC1 (stereo not drawn) [Example 48, (4-(pyridin-3-yl)piperazin-1-yl)(6-(tetrahydro-2H-pyran-4-yl)-6-azaspiro[2.5]octan-1-yl)methanone] |  | 308 |
| O=C(C1CC12CCN(C1CCOCC1)CC2)N1CCN(C2CCOCC2)CC1 (stereo not drawn) [Example 24, [6-(Tetrahydro-pyran-4-yl)-6-aza-spiro[2.5]oct-1-yl]-[4-(tetrahydro-pyran-4-yl)-piperazin-1-yl]-methanone] | 336 |  |
| O=C(C1CC12CCN(c1ccc3c(c1)OCO3)CC2)N1CCN(C2CCCCC2)CC1 (stereo not drawn) [Example 47, (6-Benzo[1,3]dioxol-5-yl-6-aza-spiro[2.5]oct-1-yl)-(4-cyclohexyl-piperazin-1-yl)-methanone] | 5170 |  |
| COc1cccc(N2CCC3(CC2)CC3C(=O)N2CCN(C3CCC3)CC2)n1 (stereo not drawn) [Example 41, (4-Cyclobutyl-piperazin-1-yl)-[6-(6-methoxy-pyridin-2-yl)-6-aza-spiro[2.5]oct-1-yl]-methanone] | 542 |  |
| CNC(=O)CN1CCC2(CC1)CC2C(=O)N1CCN(C2CCC2)CC1 (stereo not drawn) [Example 37, 2-[1-(4-Cyclobutyl-piperazine-1-carbonyl)-6-aza-spiro[2.5]oct-6-yl]-N-methyl-acetamide] | 207 |  |
| O=C(C1CC12CCN(c1cccc(Cl)n1)CC2)N1CCN(C2CCC2)CC1 (stereo not drawn) [Example 42, [6-(6-Chloro-pyridin-2-yl)-6-aza-spiro[2.5]oct-1-yl]-(4-cyclobutyl-piperazin-1-yl)-methanone] | 594 |  |
| CS(=O)(=O)c1ccc(N2CCC3(CC2)CC3C(=O)N2CCN(C3CCC3)CC2)cc1 (stereo not drawn) [Example 38, (4-Cyclobutyl-piperazin-1-yl)-[6-(4-methanesulfonyl-phenyl)-6-aza-spiro[2.5]oct-1-yl]-methanone] | 336 |  |
| Cc1cc(N2CCN(C(=O)C3CC34CCN(C3CCOCC3)CC4)CC2)ccn1 (stereo not drawn) [Example 49, (4-(2-methylpyridin-4-yl)piperazin-1-yl)(6-(tetrahydro-2H-pyran-4-yl)-6-azaspiro[2.5]octan-1-yl)methanone] |  | 249 |
